Test results reported in patent US9492472B2, “Compositions and methods of treating cancer” (Case Western Reserve University, priority 2009, dated 2016).
Peptide text beside a SMILES is read from it.

Assays:
[1] = reported earlier; cited from earlier work
[2] = Cell penetrating capacity of the pentapeptide; assay type: cell-based; conditions: cells incubated with the peptide >1 hr (n.s.)

| Compound | toxicity (A7 cells) | cell penetrating capacity [1] | entry into cells without Ca2+ [2] |
| --- | --- | --- | --- |
| CC[C@H](C)[C@H](NC(=O)[C@H](CC(C)C)NC(=O)[C@H](Cc1ccccc1)NC(=O)[C@H](CO)NC(=O)[C@@H](NC(=O)[C@H](CC(C)C)NC(=O)[C@H](CC(C)C)NC(=O)[C@@H](NC(=O)[C@@H](NC(=O)[C@@H]1CCCN1C(=O)[C@@H]1CCCN1C(=O)[C@H](CCCCN)NC(=O)[C@@H]1CCCN1C(=O)[C@H](CCCNC(=N)N)NC(=O)[C@H](CCCCN)NC(=O)[C@@H](N)CCCCN)C(C)C)[C@@H](C)CC)[C@@H](C)CC)C(=O)N[C@@H](Cc1ccccc1)C(=O)N[C@@H](CC(C)C)C(=O)N[C@H](C(=O)N[C@H](C(=O)NCC(=O)O)C(C)C)[C@@H](C)CC [KKRPK-PrP-GPI-PSS] (H-KKRPKPPVILLISFLIFLIVG-OH) | not toxic |  |  |
| KKRPK (listed as Homo sapiens) [cell penetrating pentapeptide, transport moiety] |  | has cell penetrating capacity | can enter the cells |
